The values below come from patent US8501446B2 (Vertex Pharmaceuticals Incorporated, priority 2004, dated 2013).

Assay type in all cases: biochemical
For experiment [1], the target named is T1, JAK3 (Homo sapiens, UniProt P52333).
T1 sequence (P52333 1-1124): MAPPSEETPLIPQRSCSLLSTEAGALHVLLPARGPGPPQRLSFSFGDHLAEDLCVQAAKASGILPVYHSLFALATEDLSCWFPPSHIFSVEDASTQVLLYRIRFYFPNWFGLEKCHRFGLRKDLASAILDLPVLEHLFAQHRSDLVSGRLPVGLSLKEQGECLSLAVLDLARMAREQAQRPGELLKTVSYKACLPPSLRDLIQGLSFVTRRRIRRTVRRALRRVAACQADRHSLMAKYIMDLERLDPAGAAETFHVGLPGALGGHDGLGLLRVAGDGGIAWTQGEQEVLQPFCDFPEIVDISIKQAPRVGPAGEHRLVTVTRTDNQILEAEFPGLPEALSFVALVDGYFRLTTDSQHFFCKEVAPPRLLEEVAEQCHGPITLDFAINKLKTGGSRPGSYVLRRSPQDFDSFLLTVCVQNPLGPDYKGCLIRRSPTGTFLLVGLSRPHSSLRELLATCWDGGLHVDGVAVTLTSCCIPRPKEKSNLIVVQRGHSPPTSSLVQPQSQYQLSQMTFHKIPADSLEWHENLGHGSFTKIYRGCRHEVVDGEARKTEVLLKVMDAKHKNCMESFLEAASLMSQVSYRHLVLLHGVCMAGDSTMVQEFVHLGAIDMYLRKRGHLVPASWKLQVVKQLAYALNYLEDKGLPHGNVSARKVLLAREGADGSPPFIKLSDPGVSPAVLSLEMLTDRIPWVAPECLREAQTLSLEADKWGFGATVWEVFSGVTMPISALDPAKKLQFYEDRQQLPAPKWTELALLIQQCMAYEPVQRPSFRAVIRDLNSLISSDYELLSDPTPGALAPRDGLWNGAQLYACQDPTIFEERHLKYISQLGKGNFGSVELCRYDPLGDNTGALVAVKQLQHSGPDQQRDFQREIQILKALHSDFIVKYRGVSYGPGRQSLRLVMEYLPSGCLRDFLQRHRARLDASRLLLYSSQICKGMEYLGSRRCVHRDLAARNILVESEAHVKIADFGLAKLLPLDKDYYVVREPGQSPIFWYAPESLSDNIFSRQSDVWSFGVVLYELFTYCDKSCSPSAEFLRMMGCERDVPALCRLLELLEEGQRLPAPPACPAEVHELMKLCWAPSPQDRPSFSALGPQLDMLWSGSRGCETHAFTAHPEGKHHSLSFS
The experiment is described as follows: JAK3 inhibition assay (standard radioactive enzyme assay). Particulars: average Ki if more than one value determined.

The target of experiment [2] is T2, ROCK I (AA 6-553) (Homo sapiens, UniProt Q13464).
T2 construct: ROCK I (AA 6-553)
The experiment is described as follows: ROCK inhibition assay, standard coupled enzyme system ("Enzyme"). Particulars: enzyme-linked assay. Put shortly: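 ROCK I (AA 6-553) at 45 nM and 30 °C with 45 μM ATP and 200 μM peptide, in 100 mM HEPES pH 7.5, 10 mM MgCl2, 25 mM NaCl, 2 mM DTT, 1.5% DMSO. ADP output read by a PK/LDH coupled system: 2.5 mM PEP, 350 μM NADH, 30 μg/ml PK, 10 μg/ml LDH.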

The target in experiment [3] is T3, full length Aurora-A (AA 1-403) (Homo sapiens, UniProt O14965).
T3 construct: full length Aurora-A (AA 1-403)
T3 sequence (O14965 1-403): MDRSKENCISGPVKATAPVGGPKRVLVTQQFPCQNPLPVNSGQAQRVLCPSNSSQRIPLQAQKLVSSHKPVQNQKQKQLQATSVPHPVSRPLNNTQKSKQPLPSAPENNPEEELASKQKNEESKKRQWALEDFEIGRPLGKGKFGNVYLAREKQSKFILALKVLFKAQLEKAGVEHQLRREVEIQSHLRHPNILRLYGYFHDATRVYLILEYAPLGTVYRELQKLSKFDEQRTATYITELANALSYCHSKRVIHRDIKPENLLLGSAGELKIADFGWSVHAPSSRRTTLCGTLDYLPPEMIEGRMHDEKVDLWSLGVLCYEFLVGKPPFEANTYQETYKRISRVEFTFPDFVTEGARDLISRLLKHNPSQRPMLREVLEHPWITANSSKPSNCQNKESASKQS
As to the kind of experiment: Aurora-A inhibition assay, standard coupled enzyme system. Particulars: average Ki if more than one value determined.

Experiment [4] concerns the target JAK2 (Homo sapiens, UniProt O60674). As to the kind of experiment: JAK2 inhibition assay (radioactive enzyme assay, as for JAK3). To be noted: average Ki if more than one value determined. The essentials: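 Both kinases: poly(Glu)4Tyr substrate in 100 mM HEPES pH 7.4, 10 mM MgCl2, 1 mM DTT. Run 20 min at 25° C, TCA stop, filter-bound ³³P counted, Ki(app) fitted after background subtraction. JAK3: final [γ-³³P]ATP 5 μM, enzyme added as 2 nM solution. JAK2: final poly(Glu)4Tyr 15 μM, final ATP 12 μM.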

T2 sequence (Q13464 6-553, species assumed): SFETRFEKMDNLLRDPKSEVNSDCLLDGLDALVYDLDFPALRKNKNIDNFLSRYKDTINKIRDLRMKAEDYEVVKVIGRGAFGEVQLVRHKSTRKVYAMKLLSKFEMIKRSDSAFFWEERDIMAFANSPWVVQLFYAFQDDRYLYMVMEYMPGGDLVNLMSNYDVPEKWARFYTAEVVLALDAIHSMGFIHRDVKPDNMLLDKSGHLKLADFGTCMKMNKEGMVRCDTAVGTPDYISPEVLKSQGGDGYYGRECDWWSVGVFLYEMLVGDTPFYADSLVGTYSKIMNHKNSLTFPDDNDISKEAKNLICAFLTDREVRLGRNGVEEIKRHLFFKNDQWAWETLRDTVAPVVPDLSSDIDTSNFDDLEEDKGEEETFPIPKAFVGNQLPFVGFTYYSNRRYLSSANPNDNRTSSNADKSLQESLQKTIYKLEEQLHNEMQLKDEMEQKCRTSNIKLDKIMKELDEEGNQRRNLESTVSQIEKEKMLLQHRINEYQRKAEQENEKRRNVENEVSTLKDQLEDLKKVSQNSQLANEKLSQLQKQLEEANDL
JAK2, sequence (O60674 whole entry, species assumed): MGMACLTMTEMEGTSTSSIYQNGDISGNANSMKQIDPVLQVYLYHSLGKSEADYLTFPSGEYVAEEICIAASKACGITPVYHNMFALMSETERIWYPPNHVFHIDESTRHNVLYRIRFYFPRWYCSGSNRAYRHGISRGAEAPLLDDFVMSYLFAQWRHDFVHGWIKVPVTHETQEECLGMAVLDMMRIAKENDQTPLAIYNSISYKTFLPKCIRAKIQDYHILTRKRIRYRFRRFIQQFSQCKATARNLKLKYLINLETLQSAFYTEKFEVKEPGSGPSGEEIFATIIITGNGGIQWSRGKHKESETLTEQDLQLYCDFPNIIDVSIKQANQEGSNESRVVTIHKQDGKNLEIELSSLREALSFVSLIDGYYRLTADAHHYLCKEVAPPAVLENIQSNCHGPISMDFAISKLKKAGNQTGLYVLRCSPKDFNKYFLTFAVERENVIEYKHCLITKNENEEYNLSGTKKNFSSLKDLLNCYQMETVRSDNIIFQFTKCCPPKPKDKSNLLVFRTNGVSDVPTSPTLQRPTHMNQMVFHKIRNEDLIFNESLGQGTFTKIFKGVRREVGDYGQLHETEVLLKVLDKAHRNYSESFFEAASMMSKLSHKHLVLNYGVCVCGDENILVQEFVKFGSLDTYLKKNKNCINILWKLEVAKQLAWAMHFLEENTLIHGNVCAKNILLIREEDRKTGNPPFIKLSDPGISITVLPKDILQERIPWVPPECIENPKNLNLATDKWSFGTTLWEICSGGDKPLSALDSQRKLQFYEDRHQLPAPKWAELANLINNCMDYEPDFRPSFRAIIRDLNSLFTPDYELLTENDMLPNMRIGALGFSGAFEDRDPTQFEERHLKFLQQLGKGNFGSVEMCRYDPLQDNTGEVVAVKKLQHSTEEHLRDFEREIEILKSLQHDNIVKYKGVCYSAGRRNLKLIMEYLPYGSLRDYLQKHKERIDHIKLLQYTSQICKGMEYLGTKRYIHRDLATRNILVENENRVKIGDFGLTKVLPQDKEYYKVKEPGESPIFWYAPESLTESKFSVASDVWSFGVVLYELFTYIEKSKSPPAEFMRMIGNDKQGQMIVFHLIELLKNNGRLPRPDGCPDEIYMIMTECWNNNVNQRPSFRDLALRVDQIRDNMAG

For `CC(=O)N1[C@H](C)CN(c2cccc(-c3c[nH]c4ncc(OC5CCOC5)cc34)n2)C[C@@H]1C` (some centres unmarked) [Compound 96], the Ki was below 0.5 µM in experiment [1], 0.5 to 5 µM in experiment [2], 0.5 to 5 µM in experiment [3] and below 0.5 µM in experiment [4].

On to `O=C(O)c1ccc(-c2c[nH]c3ncc(Cl)cc23)nc1NCc1ccccc1` [Compound 42], for which the inhibition constant Ki in experiment [1] was below 0.5 µM; in experiment [2], 0.5 to 5 µM; in experiment [3], below 0.5 µM; in experiment [4], below 0.5 µM.

Take `C/C=C/C(=O)Nc1cnc2[nH]cc(-c3cccc(N4C[C@@H](C)N(C(C)=O)[C@@H](C)C4)n3)c2c1` [Compound 181]: the Ki is below 0.5 µM in experiment [1], 0.5 to 5 µM in experiment [2], 0.5 to 5 µM in experiment [3] and below 0.5 µM in experiment [4].

As to `C=CC(=O)Nc1cnc2[nH]cc(-c3cccc(N4C[C@@H](C)N(C(C)=O)[C@@H](C)C4)n3)c2c1` [Compound 118], the Ki in experiment [1] was below 0.5 µM; in experiment [2] it was 0.5 to 5 µM; in experiment [3], 0.5 to 5 µM; in experiment [4], below 0.5 µM.

`CC(=O)N1[C@H](C)CN(c2cccc(-c3c[nH]c4ncc(C(=O)N5C[C@@H](C)N[C@@H](C)C5)cc34)n2)C[C@@H]1C` [Compound 52]: the Ki is above 5 µM in experiment [1], 0.5 to 5 µM in experiment [2], 0.5 to 5 µM in experiment [3] and above 5 µM in experiment [4].

Take `CC(=O)N1[C@H](C)CN(c2cccc(-c3c[nH]c4ncc(C(=O)N(C)C)cc34)n2)C[C@@H]1C` [Compound 60]: the Ki in experiment [1], in experiment [2], in experiment [3] and in experiment [4] was 0.5 to 5 µM throughout.

Consider `CC(=O)N1[C@H](C)CN(c2nc(-c3c[nH]c4ncc(Cl)cc34)c(F)cc2C#N)C[C@@H]1C` [Compound 68], for which the Ki in experiment [1] is below 0.5 µM; in experiment [2], 0.5 to 5 µM; in experiment [3], below 0.5 µM; in experiment [4], below 0.5 µM.

Take `CC(=O)N1[C@H](C)CN(c2nc(-c3c[nH]c4ncc(Cl)cc34)ccc2[N+](=O)[O-])C[C@@H]1C` [Compound 75]: the Ki in experiment [1], in experiment [2], in experiment [3] and in experiment [4] was below 0.5 µM each time.

On to `O=C(O)c1cc(Br)cc(-c2c[nH]c3ncc(Cl)cc23)c1` [Compound 177], for which the Ki in experiment [1] was below 0.5 µM; in experiment [2], 0.5 to 5 µM; in experiment [3], below 0.5 µM; in experiment [4], below 0.5 µM.

For the compound `CC(=O)N1[C@H](C)CN(c2cccc(-c3c[nH]c4ncc(C(=O)O)cc34)n2)C[C@@H]1C` [Compound 47], the Ki in experiment [1] was below 0.5 µM; in experiment [2], 0.5 to 5 µM; in experiment [3], 0.5 to 5 µM; in experiment [4], below 0.5 µM.

With `CC(=O)N1[C@H](C)CN(c2ccc(N)c(-c3c[nH]c4ncc(Cl)cc34)n2)C[C@@H]1C` [Compound 81], the inhibition constant (Ki) is 0.5 to 5 µM in experiment [1], 0.5 to 5 µM in experiment [2], below 0.5 µM in experiment [3] and 0.5 to 5 µM in experiment [4].

On to `CC(=O)N1[C@H](C)CN(c2cccc(-c3c[nH]c4ncc(C)cc34)n2)C[C@@H]1C` [Compound 41], for which the Ki in experiment [1] is below 0.5 µM; in experiment [2] it was 0.5 to 5 µM; in experiment [3] it was below 0.5 µM; in experiment [4], below 0.5 µM.

Turning to `C[C@@H](CO)Nc1cccc(-c2c[nH]c3ncc(Cl)cc23)n1` [Compound 103], the Ki in experiment [1] was below 0.5 µM; in experiment [2] it was 0.5 to 5 µM; in experiment [3], 0.5 to 5 µM; in experiment [4], below 0.5 µM.

As to `C/C=C(\C)C(=O)Nc1cnc2[nH]cc(-c3cccc(N4C[C@@H](C)N(C(C)=O)[C@@H](C)C4)n3)c2c1` [Compound 161], the Ki was below 0.5 µM in experiment [1], 0.5 to 5 µM in experiment [2], 0.5 to 5 µM in experiment [3] and below 0.5 µM in experiment [4].

For the compound `CC(=O)N1[C@H](C)CN(c2cccc(-c3c[nH]c4ncc(NC(=O)C5=CCCCC5)cc34)n2)C[C@@H]1C` [Compound 155], the Ki in experiment [1] was below 0.5 µM; in experiment [2], 0.5 to 5 µM; in experiment [3], 0.5 to 5 µM; in experiment [4] it was below 0.5 µM.

With `CC(=O)N1[C@H](C)CN(c2ccc(C#N)c(-c3c[nH]c4ncc(Cl)cc34)n2)C[C@@H]1C` [Compound 93], the Ki in experiment [1] was below 0.5 µM; in experiment [2], 0.5 to 5 µM; in experiment [3], below 0.5 µM; in experiment [4] it was below 0.5 µM.

For the compound `CC(=O)N1[C@H](C)CN(c2cccc(-c3c[nH]c4ncc(NC(=O)CCN5CCOCC5)cc34)n2)C[C@@H]1C` [Compound 121], the Ki in experiment [1] is below 0.5 µM; in experiment [2], 0.5 to 5 µM; in experiment [3] it was 0.5 to 5 µM; in experiment [4] it was below 0.5 µM.

Consider `CC(C)[C@@H](C)Nc1cccc(-c2c[nH]c3ncc(Cl)cc23)n1` [Compound 130], for which the Ki in experiment [1] is below 0.5 µM; in experiment [2], 0.5 to 5 µM; in experiment [3], below 0.5 µM; in experiment [4], below 0.5 µM.

Turning to `CC(=O)N1[C@H](C)CN(c2cccc(-c3c[nH]c4ncc(NC(=O)C5=CCCC5)cc34)n2)C[C@@H]1C` [Compound 157], the Ki in experiment [1] is below 0.5 µM; in experiment [2], 0.5 to 5 µM; in experiment [3] it was 0.5 to 5 µM; in experiment [4], below 0.5 µM.

With `CC(=O)N1[C@H](C)CN(c2ccc([N+](=O)[O-])c(-c3c[nH]c4ncc(Cl)cc34)n2)C[C@@H]1C` [Compound 78], the inhibition constant Ki is below 0.5 µM in experiment [1], 0.5 to 5 µM in experiment [2], below 0.5 µM in experiment [3] and below 0.5 µM in experiment [4].

Turning to `CC(=O)N1[C@H](C)CN(c2cccc(-c3c[nH]c4ncc(NC(=O)c5cccnc5)cc34)n2)C[C@@H]1C` [Compound 163], the Ki in experiment [1] was below 0.5 µM; in experiment [2], 0.5 to 5 µM; in experiment [3] it was 0.5 to 5 µM; in experiment [4] it was below 0.5 µM.

Turning to `CC(=O)N1[C@H](C)CN(c2cccc(-c3c[nH]c4ncc(NC(=O)c5cnccn5)cc34)n2)C[C@@H]1C` [Compound 164], the Ki is below 0.5 µM in experiment [1], 0.5 to 5 µM in experiment [2], 0.5 to 5 µM in experiment [3] and below 0.5 µM in experiment [4].

For `CC(C)CN(C)c1cccc(-c2c[nH]c3ncc(Cl)cc23)n1` [Compound 123], the Ki was below 0.5 µM in experiment [1], 0.5 to 5 µM in experiment [2], 0.5 to 5 µM in experiment [3] and below 0.5 µM in experiment [4].

In the case of `CC(=O)N1[C@H](C)CN(c2cccc(-c3c[nH]c4ncc(NC(=O)CCN5CCNCC5)cc34)n2)C[C@@H]1C` [Compound 128], the Ki was below 0.5 µM in experiment [1], 0.5 to 5 µM in experiment [2], 0.5 to 5 µM in experiment [3] and below 0.5 µM in experiment [4].

With `CC(=O)N1[C@H](C)CN(c2cccc(-c3c[nH]c4ncc(NC(=O)c5cccc(F)c5)cc34)n2)C[C@@H]1C` [Compound 169], the Ki in experiment [1] is below 0.5 µM; in experiment [2], 0.5 to 5 µM; in experiment [3] it was 0.5 to 5 µM; in experiment [4] it was below 0.5 µM.

For the compound `OC[C@@H](Nc1cccc(-c2c[nH]c3ncc(Cl)cc23)n1)c1ccccc1` [Compound 101], the Ki in experiment [1] is below 0.5 µM; in experiment [2] it was 0.5 to 5 µM; in experiment [3] it was below 0.5 µM; in experiment [4], below 0.5 µM.
